Values quoted from earlier work as cited in US6703022B2, “Composition and method useful for treating colic” (Lev Laboratories, Inc., priority 1999, dated 2004).

Test system: mice
Settings: at certain doses

**Q.** Which “mutagenic and carcinogenic effects” value does the source give for `C=CCc1ccc(OC)cc1` [Estragole, 1-allyl-4-methoxybenzene] here?
**A.** The value was “mutagenic and carcinogenic effects”.
